Biological target: H1047R PIK3CA enzyme (Homo sapiens, UniProt P42336, H1047R)
Assay: ADP-Glo Biochemical PIK3CA Kinase Assay
Conditions: not given
Method: Compounds to be assayed were plated in 16 doses of 1:2 serial dilutions (20 nL volume each well) on a 1536-well plate, and the plate warmed to room temperature. PIK3CA enzyme (e.g. H1047R, E542K, E545K, or wild-type) (1 μL of 2 nM solution in Enzyme Assay Buffer (comprising 50 mM HEPES pH 7.4, 50 mM NaCl, 6 mM MgCl2, 5 mM DTT and 0.03% CHAPS)) was added and shaken for 10 seconds and preincubated for 30 minutes. To the well was added 1 μL of 200 μM ATP and 20 μM of diC8-PIP2 in Substrate Assay Buffer (50 mM HEPES pH7.4, 50 mM NaCl, 5 mM DTT and 0.03% CHAPS) to start the reaction, and the plate was shaken for 10 seconds, then spun briefly at 1500 rpm, and then incubated for 60 minutes at room temperature. The reaction was stopped by adding 2 μL of ADP-Glo reagent (Promega), and spinning briefly at 1500 rpm, and then incubating for 40 minutes. ADP-Glo Detection reagent (Promega) was added and the plate spun briefly at 1500 rpm, then incubated for 30 minutes.

Sequence of H1047R PIK3CA enzyme (P42336 whole entry H1047R): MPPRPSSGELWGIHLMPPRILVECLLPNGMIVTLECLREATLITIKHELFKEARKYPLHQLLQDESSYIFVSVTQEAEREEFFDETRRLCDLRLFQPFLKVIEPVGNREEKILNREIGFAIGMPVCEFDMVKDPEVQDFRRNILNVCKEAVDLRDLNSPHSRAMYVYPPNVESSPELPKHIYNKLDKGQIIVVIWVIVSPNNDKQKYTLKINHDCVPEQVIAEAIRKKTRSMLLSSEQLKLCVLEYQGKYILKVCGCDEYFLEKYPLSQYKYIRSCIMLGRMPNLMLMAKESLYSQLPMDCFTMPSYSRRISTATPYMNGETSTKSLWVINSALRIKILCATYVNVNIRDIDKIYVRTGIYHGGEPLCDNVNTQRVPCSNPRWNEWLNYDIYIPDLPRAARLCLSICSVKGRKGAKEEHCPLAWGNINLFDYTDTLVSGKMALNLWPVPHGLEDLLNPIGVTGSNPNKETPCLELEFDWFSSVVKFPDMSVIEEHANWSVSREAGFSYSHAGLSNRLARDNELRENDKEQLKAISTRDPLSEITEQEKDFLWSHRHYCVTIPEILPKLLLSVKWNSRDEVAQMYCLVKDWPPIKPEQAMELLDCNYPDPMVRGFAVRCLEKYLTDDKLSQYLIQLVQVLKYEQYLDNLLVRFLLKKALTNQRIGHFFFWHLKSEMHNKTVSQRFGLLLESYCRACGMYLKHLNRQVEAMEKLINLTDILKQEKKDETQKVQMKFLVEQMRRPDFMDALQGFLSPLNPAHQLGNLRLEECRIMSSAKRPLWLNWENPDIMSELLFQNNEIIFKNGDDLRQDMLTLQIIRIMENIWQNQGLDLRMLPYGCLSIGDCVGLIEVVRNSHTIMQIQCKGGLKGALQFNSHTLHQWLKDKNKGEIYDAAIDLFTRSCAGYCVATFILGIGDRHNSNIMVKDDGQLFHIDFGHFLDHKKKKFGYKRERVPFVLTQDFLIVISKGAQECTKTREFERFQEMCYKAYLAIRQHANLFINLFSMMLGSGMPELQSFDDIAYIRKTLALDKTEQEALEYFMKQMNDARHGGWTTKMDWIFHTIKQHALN
Sequence of H1047R PIK3CA enzyme (P27986 whole entry partner): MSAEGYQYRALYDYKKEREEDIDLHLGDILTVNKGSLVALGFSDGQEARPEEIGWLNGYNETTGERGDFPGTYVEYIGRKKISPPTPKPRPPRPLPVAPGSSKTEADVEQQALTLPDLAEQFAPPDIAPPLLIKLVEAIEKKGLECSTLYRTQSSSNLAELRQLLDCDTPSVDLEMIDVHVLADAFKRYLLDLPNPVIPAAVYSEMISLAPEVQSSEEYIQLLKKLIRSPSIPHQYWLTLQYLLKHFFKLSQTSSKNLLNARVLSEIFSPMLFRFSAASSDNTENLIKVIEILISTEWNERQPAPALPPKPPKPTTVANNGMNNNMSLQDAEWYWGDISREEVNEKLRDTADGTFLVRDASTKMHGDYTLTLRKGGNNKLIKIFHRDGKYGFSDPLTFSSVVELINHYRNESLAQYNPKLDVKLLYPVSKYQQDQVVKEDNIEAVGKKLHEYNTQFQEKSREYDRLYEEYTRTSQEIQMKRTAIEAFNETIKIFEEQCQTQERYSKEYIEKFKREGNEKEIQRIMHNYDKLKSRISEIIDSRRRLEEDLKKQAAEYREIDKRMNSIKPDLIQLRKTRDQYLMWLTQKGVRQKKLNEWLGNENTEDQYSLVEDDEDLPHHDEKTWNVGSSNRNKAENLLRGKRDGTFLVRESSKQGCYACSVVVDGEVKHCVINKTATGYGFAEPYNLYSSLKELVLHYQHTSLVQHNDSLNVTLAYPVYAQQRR

SMILES	IC50
CNC(=O)c1cnc(N2CCNc3ccccc32)c(NC(=O)c2csc3ccccc23)c1 [I-244]	10 to 100 µM
CNC(=O)c1cnc(Nc2ccccc2C)c(NC(=O)c2cccc(F)c2)c1 [I-143]	10 to 100 µM
Cc1ccccc1Nc1ncc(-c2cn[nH]c2)cc1NC(=O)c1cc(F)cc(C(F)(F)F)c1 [I-81]	1 to 10 µM
CNC(=O)c1cnc(Nc2ccccc2C)c(NS(=O)(=O)c2ccccc2)c1 [I-20]	1 to 10 µM
CNC(=O)c1cnc(Nc2ccccc2C)c(NC(=O)c2cc(C)n(C(F)F)n2)c1 [I-369]	10 to 100 µM
CNC(=O)c1cnc(Nc2ccccc2C)c(NC(=O)c2cc3ccccc3cn2)c1 [I-184]	10 to 100 µM
CNC(=O)c1cnc(Nc2ccccc2C)c(NC(=O)c2cc(C(F)(F)F)cc(C(F)(F)F)c2)c1 [I-177]	10 to 100 µM
CNC(=O)c1cnc(Nc2ccccc2C)c(NCc2ccccc2)c1 [I-23]	10 to 100 µM
CNC(=O)c1cnc(N[C@@H]2CCCC[C@@H]2CO)c(NC(=O)c2cc(F)cc(C(F)(F)F)c2)c1 (racemic) [I-812]	10 to 100 µM
CNC(=O)c1cnc(Nc2ccccc2C)c(NC(=O)C2CCN(C(C)=O)CC2)c1 [I-163]	10 to 100 µM
CNC(=O)c1cnc(Nc2ccccc2C)c(NC(=O)c2cn(C)c3ccccc23)c1 [I-207]	1 to 10 µM
Cc1ccccc1Nc1ncc(-c2cnn(C)c2)cc1NC(=O)c1cccn2nccc12 [I-89]	10 to 100 µM
CNc1ncc(Br)cc1NC(=O)c1cc(F)cc(C(F)(F)F)c1 [I-58]	10 to 100 µM
Cc1ccccc1Nc1ncc(C(=O)NS(C)(=O)=O)cc1NC(=O)c1cc(F)cc(C(F)(F)F)c1 [I-69]	10 to 100 µM
CNC(=O)c1cnc(Nc2ccccc2C)c(NC(=O)c2ccc(F)c3ccccc23)c1 [I-236]	10 to 100 µM
CNC(=O)CN1CC(=O)N[C@H](c2cc(F)ccc2Cl)[C@H]1C(=O)NC1CCCC(C(F)(F)F)C1 (mixture of isomers) [I-825, trans-3-(2-chloro-5-fluorophenyl)-1-[(methylcarbamoyl)methyl]-5-oxo-N-[3-(trifluoromethyl)cyclohexyl]piperazine-2-carboxamide]	10 to 100 µM
CNC(=O)c1cnc(Nc2ccccc2C)c(NC(=O)CC2CCc3ccccc32)c1 (stereo not shown) [I-170]	10 to 100 µM
CNC(=O)c1cnc(Nc2ccccc2C)c(NC(=O)c2csc3ncccc23)c1 [I-283]	10 to 100 µM
CCC(C(=O)Nc1cc(C(=O)NC)cnc1Nc1ccccc1C)c1ccccc1 (stereo not shown) [I-162]	10 to 100 µM
Cn1cc(NC(=O)c2csc3ccccc23)c(N2CCOc3ccccc32)cc1=O [I-272]	1 to 10 µM
Cc1ccccc1Nc1ncc(-c2cnn(C)c2)cc1NC(=O)c1ccc(S(C)(=O)=O)cc1 [I-123]	10 to 100 µM
COc1cccc(C(=O)Nc2cc(-c3cnn(C)c3)cnc2Nc2ccccc2C)c1 [I-124]	10 to 100 µM

SMILES	IC50
Cc1ccccc1Nc1ncc(N2CCN(C(=O)OC(C)(C)C)CC2)cc1NC(=O)c1cc(F)cc(C(F)(F)F)c1 [I-270]	1 to 10 µM
CNC(=O)c1cnc(Nc2ccccc2C)c(NC(=O)c2csc3cc(OC)ccc23)c1 [I-355]	10 to 100 µM
Cc1ccccc1Nc1ncc(-c2cnn(C)c2)cc1NC(=O)c1ccc(F)c(C(F)(F)F)c1 [I-102]	1 to 10 µM
Cc1ccccc1Nc1ncc(C(=O)Nc2cncnc2)cc1NC(=O)c1cc(F)cc(C(F)(F)F)c1 [I-265]	0.5 to 1 µM
Cc1ccccc1Nc1ncc(-c2cnn(C)c2)cc1NC(=O)c1ccccc1OC(F)(F)F [I-111]	10 to 100 µM
Cc1ccccc1Nc1ncc(-c2cnn(C)c2)cc1NC(=O)c1ccc(C#N)cc1 [I-106]	10 to 100 µM
CNC(=O)c1cnc(Nc2ccccc2C)c(NC(=O)c2cc(F)cc(S(N)(=O)=O)c2)c1 [I-389]	10 to 100 µM
CNC(=O)c1cnc(Nc2ccccc2C)c(NCC2CC2)c1 [I-34]	10 to 100 µM
Cc1ccccc1Nc1ncc(C(=O)NC2CS(=O)(=O)C2)cc1NC(=O)c1cncc2ccccc12 [I-356]	10 to 100 µM
CNC(=O)c1cnc(Nc2ccccc2C)c(NC(=O)CCc2cnccc2C(F)(F)F)c1 [I-384]	10 to 100 µM
CNC(=O)c1cnc(NCc2nccn2C)c(NC(=O)c2cc(F)cc(C(F)(F)F)c2)c1 [I-185]	10 to 100 µM
Cc1ccccc1Nc1ncc(-c2cnn(C)c2)cc1NC(=O)c1cccc(Br)c1 [I-99]	1 to 10 µM
CNC(=O)c1cc(NC(=O)c2cc(F)cc(C(F)(F)F)c2)c(N(C)c2ccccc2C)cn1 [I-325]	1 to 10 µM
Cc1cc(F)cc(C(=O)Nc2cc(-c3cnn(C)c3)cnc2Nc2ccccc2C)c1 [I-95]	1 to 10 µM
CNC(=O)c1cnc(Nc2ccccc2C)c(NC(=O)[C@@H](OC)c2ccccc2)c1 [I-169]	10 to 100 µM
CNC(=O)c1cnc(Nc2ccccc2C)c(NC(=O)c2cn3c(C(F)(F)F)cccc3n2)c1 [I-380]	10 to 100 µM
CNC(=O)c1cnc(Nc2ccccc2C)c(N(S(=O)(=O)c2ccc(F)cc2C)S(=O)(=O)c2ccc(F)cc2C)c1 [I-10]	10 to 100 µM
CNC(=O)c1cnc(Nc2ccccc2C)c(NC(=O)CC2COc3ccccc3O2)c1 (stereo not shown) [I-381]	10 to 100 µM
Cc1ccccc1Nc1ncc(NCC(=O)O)cc1NC(=O)c1cc(F)cc(C(F)(F)F)c1 [I-179]	1 to 10 µM
CNC(=O)c1cnc(Nc2ccccc2)c([N+](=O)[O-])c1 [I-24]	10 to 100 µM
CNC(=O)c1cnc(Nc2ccccc2C)c(NC(=O)c2ccnc(C(F)(F)F)c2)c1 [I-366]	10 to 100 µM

Same assay, conditions: ADP-Glo biochemical PIK3CA kinase assay

SMILES	IC50
CNC(=O)c1cnc(Nc2ccccc2C)c(NC(=O)c2ccc(C)c(F)c2)c1 [I-723]	1 to 10 µM
CNC(=O)c1cnc(Nc2cncc3ccccc23)c(NC(=O)c2csc3ccccc23)c1 [I-741]	1 to 10 µM
CNC(=O)c1cnc(Nc2ccccc2C)c(NC(=O)c2ccc3c(cnn3C)c2)c1 [I-431]	10 to 100 µM
Cc1ccccc1Nc1ncc(C(=O)N2CC3(COC3)C2)cc1NC(=O)c1csc2ccccc12 [I-576]	1 to 10 µM
CNC(=O)c1cnc(Nc2ccccc2C)c(NC(=O)c2ccc3c(c2)CCN3C)c1 [I-504]	10 to 100 µM
O=C(Nc1ccn2cnnc2c1Nc1ccccc1Cl)c1cc(F)cc(C(F)(F)F)c1 [I-794]	10 to 100 µM
CNC(=O)c1cnc(Nc2ccccc2C)c(NC(=O)c2cc(C)cc3cccnc23)c1 [I-419]	1 to 10 µM
CNC(=O)c1cnc(Nc2ccccc2C)c(NC(=O)c2nc3ccccn3c2C)c1 [I-427]	10 to 100 µM
CNC(=O)c1cnc(Nc2ncccc2C2CC2)c(NC(=O)c2csc3ccccc23)c1 [I-742]	1 to 10 µM
CNC(=O)c1cnc(Nc2ccnc3c2ccn3C)c(NC(=O)c2csc3ccccc23)c1 [I-737]	1 to 10 µM
CNC(=O)c1cnc(Nc2ccccc2C)c(NC(=O)c2cnn3cc(F)ccc23)c1 [I-420]	10 to 100 µM
CNC(=O)c1cnc(Nc2ccccc2C)c(NC(=O)c2cccnc2CS(C)(=O)=O)c1 [I-443]	10 to 100 µM
CNC(=O)c1cnc(Nc2ccccc2C)c(NC(=O)c2cc(C)cc3cc[nH]c23)c1 [I-423]	1 to 10 µM
CNC(=O)c1cnc(Nc2ccccc2C)c(NC(=O)Cc2cc(Cl)cc(C(F)(F)F)c2)c1 [I-587]	1 to 10 µM
CNC(=O)c1cnc(Nc2ccccc2C)c(NC(=O)C(C)Cc2ccc(F)cc2)c1 (stereo not shown) [I-471]	10 to 100 µM
CNC(=O)c1cnc(Nc2ccccc2C)c(NC(=O)c2cc3cc(F)ccc3[nH]2)c1 [I-425]	10 to 100 µM
CNC(=O)c1cnc(Nc2ccccc2C)c(NC(=O)c2cc3cc(F)ccc3o2)c1 [I-488]	10 to 100 µM
Nc1ncc(C(=O)O)cc1NC(=O)c1csc2ccccc12 [I-673]	1 to 10 µM

SMILES	IC50
CNC(=O)c1cnc(Nc2ccccc2C)c(NC(=O)c2cn[nH]c2-c2ccc(F)cc2)c1 [I-473]	10 to 100 µM
CNC(=O)c1cnc(Nc2ccccc2C)c(NC(=O)c2cn3cccc(Br)c3n2)c1 [I-509]	10 to 100 µM
CNC(=O)c1cnc(Nc2ccccc2C)c(NC(=O)c2csc3cncnc23)c1 [I-551]	1 to 10 µM
COc1ccnc(CNC(=O)c2cnc(Nc3ccccc3C)c(NC(=O)c3cc(F)cc(C(F)(F)F)c3)c2)c1 [I-720]	1 to 10 µM
Cc1ccccc1Nc1ncc(C(=O)NC2CCN(C)C2)cc1NC(=O)c1csc2ccccc12 (stereo not shown) [I-574]	1 to 10 µM
Cc1ccccc1Nc1ncc(C(=O)NCC2CCC(F)(F)C2)cc1NC(=O)c1csc2ccccc12 (stereo not shown) [I-531]	10 to 100 µM
CNC(=O)c1cnc(Nc2ccccc2C)c(NC(=O)c2nc(Cl)cc3ccccc23)c1 [I-555]	1 to 10 µM
COCC1CN(C(=O)c2cnc(Nc3ccccc3C)c(NC(=O)c3csc4ccccc34)c2)C1 [I-615]	1 to 10 µM
CNC(=O)c1cnc(Nc2ccccc2C)c(NC(=O)c2ccc(C(F)F)cn2)c1 [I-484]	10 to 100 µM
Nc1c2c(nn1C(=O)c1cc(F)cc(C(F)(F)F)c1)CCCC2 [I-778]	10 to 100 µM
CNC(=O)c1cnc(Nc2ccccc2C)c(NC(=O)c2cccc(OC)c2F)c1 [I-454]	10 to 100 µM
CNC(=O)c1cnc(N[C@@H]2CCOC2)c(NC(=O)c2cc(F)cc(C(F)(F)F)c2)c1 (racemic) [I-554]	1 to 10 µM
CNC(=O)c1cnc(Nc2ccccc2C)c(NC(=O)C2CCCCC2(F)F)c1 (stereo not shown) [I-441]	10 to 100 µM
CNC(=O)c1cnc(Nc2ccccc2C)c(NC(=O)c2cccc3ccoc23)c1 [I-494]	10 to 100 µM
CNC(=O)c1cnc(Nc2ccccc2C)c(NC(=O)c2ccnc3c(F)cccc23)c1 [I-438]	10 to 100 µM
CNC(=O)c1cnc(Nc2ccccc2C)c(NC(=O)Cc2cccc(Br)c2F)c1 [I-501]	10 to 100 µM
Cc1ccccc1Nc1ncc(C(=O)O)cc1NC(=O)c1csc2ccccc12 [I-629]	1 to 10 µM
CNC(=O)c1cnc(Nc2ccccc2C)c(NC(=O)NC23C[C@H]4C[C@@H](C2)C[C@@H](C3)C4)c1 [I-798]	1 to 10 µM

Source: US20250090540A1, “PI3K-ALPHA INHIBITORS AND METHODS OF USE THEREOF” (Relay Therapeutics, Inc., priority 2021, published 2025)
